Assay [1] concerns apoptotic neutrophils (differentiated HL60) co-cultured with macrophage (differentiated THP-1). The assay is described as follows: Efferocytosis index and apoptotic cell clearance. In kind it is cell-based, human. Here is the method: THP-1 and HL60 cells were obtained from the American Type Culture Collection (ATCC, Rockville, Md., USA). THP-1 cells were grown in RPMI1640 medium (WELGENE, Seoul, Korea) containing 10% fetal bovine serum (HyClone, Waltham, Mass., USA), 1% antibiotics (100 mg/l streptomycin, 100 U/ml penicillin), and 0.4% 2-Mercaptoethanol (Sigma Aldrich, St. Louis, Mo., USA). HL60 cells were grown in RPMI1640 medium containing 20% fetal bovine serum and 1% antibiotics (100 mg/l streptomycin, 100 U/ml penicillin). Cells were grown at 37° C. in a 5% CO2 atmosphere. To differentiate THP-1 cells into macrophage-like cells, cells were grown in medium with 1% Phorbol 12-myristate 13-acetate (PMA) (Sigma Aldrich) for 72 h. To differentiate […] cells into neutrophil-like cells, cells were grown in medium with 10% DMSO (Sigma Aldrich) for 5 days
Differentiation HL60 was stained with […] CellTracker Red CMTPX (Molecular probes, Eugene, OG, USA) for 30 minutes in PBS and lead to apoptosis by PMA treatment for 24 hours. […] Efferocytotic index was analyzed by FACS (BD bioscience, Franklin Lakes, N.J., USA). […]
Differentiation HL60 was stained with […] CellTracker Red CMTPX (Molecular probes, Eugene, OG, USA) for 30 minutes in PBS and lead to apoptosis by PMA treatment. […] Fluorescence overlay videos were recorded using ZEN program (Carl Zeiss, Thornwood, NY, USA)

In assay [2] the test system is MIP2 and CXCL8 in BMDM and THP-1. The assay is described as follows: Gemcitabine-induced MIP-2 / CXCL8, RT-PCR and ELISA. It is filed as cell-based. The conditions noted are these: dose-dependent. The text has this:
Total RNA was extracted using the Total RNA Extraction Solution (Favorgen, Taiwan), according to the manufacturer's instructions. This RNA was used in reverse transcription reactions with oligo-dT primers and M-MLV RT reagents (Promega, Madison, Wis., USA), according to the manufacturer's instructions. For RT-PCR, the synthesized cDNA was mixed with 2×PCR Master Mix (Solgent, Daejeon, Republic of Korea) and 10 pmol specific PCR primer pair following the manufacturer's protocol. […] An SYBR Green kit (Applied Biosystems, Foster City, Calif., USA) was used for real-time PCR (qPCR) analysis of cDNA according to the manufacturer's instructions. […] The relative expression levels of target genes were calculated by the 2^-ΔΔCT relative quantification method. […] The concentration of MIP-2 was measured using ELISA kits for MIP-2 (R&D Systems, Minneapolis, Minn., USA according to the manufacturers' instructions. Cytokine levels were estimated by interpolation from a standard curve generated using an ELISA reader (Molecular Devices) at 450 nm. Total RNAs from cells were isolated using TRIzol® reagent (Invitrogen, CA, USA) according to the manufacturer's instructions. RT-PCR was performed using PCR reagent (Bioassay, Daejeon, South Korea). […]

For assay [3], the system named is ADORA2A on the surface of HaCaT cells. The assay can be described thus: IMQ-induced ADORA2A trafficking, confocal microscopy. In kind it is cell-based. The conditions noted are these: IMQ 5 μg/ml after PLAG 100 μg/ml 1 hour. Here is the method: HaCaT cells were divided into two groups: 1) IMQ treated group and 2) IMQ/PLAG treated group. For IMQ treated group, cells were stimulated with IMQ (5 μg/ml) for 0, 2.5, 5, 7.5, 10, 15, 30, 60, 120 minutes. For IMQ/PLAG treated group, cells were pre-incubated with PLAG (100 μg/ml) for 1 hour and then stimulated with IMQ (5 μg/ml) for 0, 2.5, 5, 7.5, 10, 15, 30, 60, 120 minutes. (A) To detect ADORA2A on the membrane surface, cells were fixed with 2% paraformaldehyde (Sigma-Aldrich) and were blocked with PBS containing 1% BSA (Gibco, Waltham, Mass., USA). They were incubated with rabbit anti-ADORA2A antibody (Thermo) and Alexa488 conjugated anti-rabbit IgG (Invitrogen) without permeabilization. (B) To detect intracellular ROS, cells were treated with FITC conjugated-CM-H2DCFDA (Invitrogen, Carlsbad, Calif., USA) for 30 min before PLAG treating. For confocal microscopy analysis, cells were washed with PBS and mounted in DAPI-containing fluorescence microscopy mounting medium (Invitrogen). Samples were analyzed with a laser scanning confocal microscope (Carl Zeiss, Oberkochen, Germany).

The results in this text go back to patent publication US20220339135A1, “COMPOSITIONS AND METHODS FOR MODULATING AN INFLAMMATORY RESPONSE” (Enzychem Lifesciences Corporation, priority 2019, published 2022).

Molecules are shown by their SMILES. Where only a bound is given, the exact number is not on record here.

For the compound `CCCCC/C=C\C/C=C\CCCCCCCC(=O)OC(COC(C)=O)COC(=O)CCCCCCCCCCCCCCC` (racemic) [PLAG, 1-palmitoyl-2-linoleoyl-3-acetylglycerol], the “clearance of apoptotic neutrophils by macrophage phagocytosis observed within” value in assay [1] (PLAG 100 μg/mL, confocal) is at most 30 min. In assay [1] (dose-dependently), the “efferocytosis of apoptotic neutrophils (efferocytotic index)” value was “promotes”. Further, the “gemcitabine-induced chemokines MIP2 and CXCL8, transcriptional and secreted protein level” value in assay [2] is “effectively reduced”. For the same compound, in assay [3], the “GPCR (ADORA2A) returns to its membrane” value worked out at 10 min and the “GPCR (ADORA2A) trafficking starts” value was 2.5 min.
